In experiment [1] the target is T1, Sentrin-specific protease 8 (Homo sapiens, UniProt Q96LD8).
T1 sequence (Q96LD8 whole entry): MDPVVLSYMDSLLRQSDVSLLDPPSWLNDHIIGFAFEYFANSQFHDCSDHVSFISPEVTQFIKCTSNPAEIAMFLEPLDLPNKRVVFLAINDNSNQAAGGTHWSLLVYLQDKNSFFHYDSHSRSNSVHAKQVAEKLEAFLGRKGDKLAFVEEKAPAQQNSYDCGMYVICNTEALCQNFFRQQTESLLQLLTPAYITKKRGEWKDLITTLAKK
It is filed as functional.

For experiment [2], the target named is T1, Sentrin-specific protease 8. The class given is functional. The source holds these as a separate data set.
Experiment [3] concerns HEK293. Kind of experiment: cells. As to conditions: Homo sapiens.
The next experiment concerns the target Tumor necrosis factor (Homo sapiens, UniProt P01375). Kind of experiment: TNFa-triggered NF-kB activation inhibitors, SAR follow-up, cell-based, revised (AID 2337). The class given is functional.
Experiment [4] concerns the target T2, Nucleotide-binding oligomerization domain-containing protein 1 (Homo sapiens, UniProt Q9Y239).
T2 sequence (Q9Y239 whole entry): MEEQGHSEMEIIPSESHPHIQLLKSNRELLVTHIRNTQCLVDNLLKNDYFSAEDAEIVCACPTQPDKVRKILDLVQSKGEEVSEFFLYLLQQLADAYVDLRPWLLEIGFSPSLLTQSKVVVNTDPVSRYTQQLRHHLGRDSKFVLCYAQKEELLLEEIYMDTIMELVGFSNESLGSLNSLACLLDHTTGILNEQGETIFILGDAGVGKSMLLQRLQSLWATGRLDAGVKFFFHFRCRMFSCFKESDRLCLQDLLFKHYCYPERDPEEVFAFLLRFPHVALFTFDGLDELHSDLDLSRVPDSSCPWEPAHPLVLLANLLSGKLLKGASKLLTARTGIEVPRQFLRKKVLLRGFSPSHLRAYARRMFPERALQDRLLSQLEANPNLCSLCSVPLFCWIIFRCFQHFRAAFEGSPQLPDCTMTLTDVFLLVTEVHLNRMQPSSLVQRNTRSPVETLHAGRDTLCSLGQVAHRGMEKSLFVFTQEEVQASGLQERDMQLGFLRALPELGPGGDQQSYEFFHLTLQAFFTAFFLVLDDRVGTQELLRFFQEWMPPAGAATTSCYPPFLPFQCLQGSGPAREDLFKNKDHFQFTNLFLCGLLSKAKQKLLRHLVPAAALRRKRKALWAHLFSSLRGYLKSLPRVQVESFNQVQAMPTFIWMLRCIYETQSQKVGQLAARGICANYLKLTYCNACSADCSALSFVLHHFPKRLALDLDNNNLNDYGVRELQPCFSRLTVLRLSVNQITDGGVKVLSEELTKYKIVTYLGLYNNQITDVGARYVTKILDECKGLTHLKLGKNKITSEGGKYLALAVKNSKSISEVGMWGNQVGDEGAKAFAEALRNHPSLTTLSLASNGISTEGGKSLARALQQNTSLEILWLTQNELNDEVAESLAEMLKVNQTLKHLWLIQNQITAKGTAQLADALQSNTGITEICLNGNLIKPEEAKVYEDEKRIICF
Nature of the experiment: NOD1 signaling inhibitors, SAR follow-up, revised (AID 2333). It is filed as functional.

The target in experiment [5] is Glucose-6-phosphate 1-dehydrogenase (Homo sapiens, UniProt P11413). Nature of the experiment: human G6PD enzyme inhibitors, dose response, selectivity assay for P. falciparum G6PD inhibitor project, biochemical, fluorescence (AID 504792). It is filed as functional.
Experiment [6] in a line: inhibitors of intracellular T. cruzi replication, confirmation, NIH3T3 host cells, beta-gal luminescence (AID 2044).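 Further: intracellular parasites grown in NIH/3T3 mouse fibroblasts as host cells; luminescent beta-galactosidase reporter signal from transgenic T. cruzi replicating inside host cells; inhibitors lower the luminescence signal.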 It is filed as functional, cell-based.
Experiment [7] can be described thus: cytotoxicity toward NIH3T3 fibroblasts, dose response, counter-screen, cell-based, ATP luminescence, mouse fibroblasts (AID 2010).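 Further: cells exposed to compound for about 90 hours before reading.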 It is filed as functional. For orientation: Counterscreens check selectivity or assay interference.
The target of experiment [8] is T3, Heat shock factor protein 1 (Mus musculus, UniProt P38532).
T3 sequence (P38532 whole entry): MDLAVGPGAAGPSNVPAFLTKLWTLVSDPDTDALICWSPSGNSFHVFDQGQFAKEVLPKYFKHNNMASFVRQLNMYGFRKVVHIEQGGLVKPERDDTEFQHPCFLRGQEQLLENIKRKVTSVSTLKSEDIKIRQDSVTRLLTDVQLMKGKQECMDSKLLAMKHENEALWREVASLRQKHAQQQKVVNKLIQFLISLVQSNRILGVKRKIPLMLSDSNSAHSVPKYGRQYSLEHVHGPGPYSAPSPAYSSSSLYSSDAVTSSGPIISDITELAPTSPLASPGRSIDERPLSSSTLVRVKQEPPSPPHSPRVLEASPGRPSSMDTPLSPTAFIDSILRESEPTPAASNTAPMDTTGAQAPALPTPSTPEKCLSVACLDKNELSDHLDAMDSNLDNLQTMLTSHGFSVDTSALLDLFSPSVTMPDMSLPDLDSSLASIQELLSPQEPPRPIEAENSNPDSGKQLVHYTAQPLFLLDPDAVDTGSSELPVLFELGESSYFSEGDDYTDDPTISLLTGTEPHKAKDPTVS
Kind of experiment: inhibition of MG132-induced HSE-luciferase signal, confirmation, cell-based, NIH3T3, luminescence, dose retest (AID 2382).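 Further: NIH3T3 fibroblasts with HSF1-driven luciferase reporter stressed by proteasome inhibitor MG132; luminescence from HSF1-driven luciferase expression after 8 hours of MG132 stress.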 It is filed as functional.

In another experiment the test system is Vero. Nature of the experiment: cells. The class given is functional. As to conditions: Chlorocebus sabaeus.
The nature of experiment [9]: miR-122 activators in hepatoma reporter cells, dose response, cell-based, Huh7 psiCHECK-miR122, Renilla luciferase, cherry-picked (AID 651956).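 Further: huh7 hepatoma cells stably carrying a psiCHECK-2 miR-122 sensor plasmid; renilla luciferase signal reporting endogenous miR-122 activity after 48 h compound exposure.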 The class given is functional.
For experiment [10], the system named is HEK293. Nature of the experiment: NOD1 signaling inhibitors, primary screen, cell-based, luminescence, uHTS (AID 1578). It is filed as functional. The following applies: Homo sapiens.
The subject of experiment [11] is HEK293. Nature of the experiment: cells. It is filed as functional, cell-based. The following applies: Homo sapiens.
For experiment [12], the system named is HEK293. Kind of experiment: NOD2 signaling inhibitors in MDP-stimulated cells, cell-based, uHTS, luminescence (AID 2001). The class given is functional. As to conditions: Homo sapiens.
In experiment [13] the test system is HEK293. Kind of experiment: cells. It is filed as functional, cell-based. As to conditions: Homo sapiens. This is another data set of the same source.
A short description of another experiment: cells. The class given is functional.
Experiment [14] concerns the target T4, Microphthalmia-associated transcription factor (Homo sapiens, UniProt O75030).
T4 sequence (O75030 whole entry): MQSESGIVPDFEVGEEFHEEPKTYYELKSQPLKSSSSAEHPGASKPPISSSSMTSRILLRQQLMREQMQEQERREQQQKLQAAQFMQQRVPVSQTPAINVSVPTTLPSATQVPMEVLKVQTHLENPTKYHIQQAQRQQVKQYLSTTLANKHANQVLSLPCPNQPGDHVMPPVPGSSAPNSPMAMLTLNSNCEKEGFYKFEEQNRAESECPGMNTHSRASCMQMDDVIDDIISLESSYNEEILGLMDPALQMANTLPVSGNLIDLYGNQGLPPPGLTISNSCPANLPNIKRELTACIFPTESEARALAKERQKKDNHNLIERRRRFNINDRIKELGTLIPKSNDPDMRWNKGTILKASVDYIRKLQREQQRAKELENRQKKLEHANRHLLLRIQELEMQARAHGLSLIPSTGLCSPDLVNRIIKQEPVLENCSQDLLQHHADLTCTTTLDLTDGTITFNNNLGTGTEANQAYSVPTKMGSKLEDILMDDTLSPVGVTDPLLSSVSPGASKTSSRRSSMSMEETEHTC
Kind of experiment: TRPM1 promoter luciferase signal decrease, dose response, MITF inhibitor project, cell-based, SK-MEL-5, cherry-picked, set 3 (AID 493073).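 Further: SK-MEL-5 melanoma cells with luciferase driven by the MITF target TRPM1 promoter.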 The class given is functional.

Experiment [15] concerns the target Heat shock protein HSP 90-alpha (Homo sapiens, UniProt P07900). It is filed as functional, organism-based.

The source of these data is ChEMBL document CHEMBL1201862, “PubChem BioAssay data set” (2004).

Active and inactive are the calls of the source.

Chain of Glucose-6-phosphate 1-dehydrogenase (P11413 whole entry): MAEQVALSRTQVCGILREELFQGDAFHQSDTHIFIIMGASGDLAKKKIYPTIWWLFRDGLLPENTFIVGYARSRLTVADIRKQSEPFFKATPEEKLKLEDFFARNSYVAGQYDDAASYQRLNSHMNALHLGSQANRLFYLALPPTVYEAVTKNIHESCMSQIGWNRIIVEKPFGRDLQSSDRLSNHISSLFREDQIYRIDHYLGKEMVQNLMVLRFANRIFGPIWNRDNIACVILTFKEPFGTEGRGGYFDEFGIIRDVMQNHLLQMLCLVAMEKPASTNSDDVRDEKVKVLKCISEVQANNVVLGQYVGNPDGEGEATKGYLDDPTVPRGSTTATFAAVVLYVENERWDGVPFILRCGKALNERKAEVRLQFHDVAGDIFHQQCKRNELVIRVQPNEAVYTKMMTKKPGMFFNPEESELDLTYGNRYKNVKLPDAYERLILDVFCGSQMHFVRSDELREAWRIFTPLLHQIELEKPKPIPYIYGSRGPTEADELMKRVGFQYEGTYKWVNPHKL
Chain of Tumor necrosis factor (P01375 whole entry, the tested form may be a part): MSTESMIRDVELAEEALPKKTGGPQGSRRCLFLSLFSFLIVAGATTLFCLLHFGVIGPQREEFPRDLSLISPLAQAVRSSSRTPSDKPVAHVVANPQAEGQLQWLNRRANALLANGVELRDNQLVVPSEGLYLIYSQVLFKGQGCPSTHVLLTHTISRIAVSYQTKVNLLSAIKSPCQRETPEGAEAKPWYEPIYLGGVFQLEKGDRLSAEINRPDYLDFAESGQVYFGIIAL

By IC50 is commonly meant the concentration that inhibits the measured activity by half. For the molecule `COC(=O)CCCC1=CC2=CC(=O)C(C)(OC(=O)c3cccs3)C(=O)C2=CN1CCCCO` (stereo unspecified), the concentration for half-maximal inhibition (IC50) in [1] was 5.99 µM (active); in experiment [2] it was 7.79 µM (active).
As to `COC(=O)c1c(NC(=O)C=Cc2cccs2)sc2c1CCC(C)C2` (stereo unspecified), the IC50 in the experiment on HEK293 [3] was > 20 µM (inactive); at Tumor necrosis factor it was 5.68 µM (active); in experiment [4], 9.46 µM (active).
As to `COC1=CC(=O)C=C(OC)C1(O)CC(C)=O`, the IC50 in [5] is 54.3 µM (inactive).
Broadly, the EC50 is the concentration giving half of the maximal effect. On to `O=C(Nc1ccccc1N1CCCC1)c1ccc([N+](=O)[O-])o1`, for which the IC50 in experiment [1] was 66.9 µM (inactive); in experiment [2], 31.3 µM (active). Also, the values for the EC50 in experiment [6] and in [7] were 0.105 µM (active) and 13.5 µM (active), respectively.
Usually CC50 stands for the concentration giving 50% cytotoxicity. As to `Cc1ccc2c(c1)C1CN(C)CCC1N2C(=O)Nc1cccc(C(F)(F)F)c1` (stereo unspecified), in experiment [8], the EC50 is > 195 µM (not active). The CC50 with Vero is > 25 µM (active).
With `CCn1c(=O)n(CC)c2cc(N3CCCC3)c(NC(=O)c3cccc(C)c3)cc21`, the IC50 in [5] is > 80 µM (inactive).
What is called AC50 is the concentration at which the activity in the assay is half-maximal. As for `O=C(CNCCC1=CCCCC1)Nc1ccccc1N1CCCCCC1`, the concentration at half-maximal activity (AC50) in experiment [9] was 2.54 µM (active).
For `COc1ccc(CNS(=O)(=O)c2ccc3c(c2)CC(C)N3C(=O)C2CC2)cc1` (stereo unspecified), the concentration giving a half-maximal response (EC50) with HEK293 [10] is 3.88 µM (active). In addition, the IC50 with HEK293 [3] was > 20 µM (inactive); with HEK293 [11], 14.8 µM (active); in the experiment with HEK293 [12] it was 12.5 µM (inactive); on Tumor necrosis factor, > 20 µM (inactive); in [4] it was 13.1 µM (active); with HEK293 [13], 7.96 µM (active).
As for `CCOc1ccc2ccccc2c1/C=N/NC(=O)c1ccncc1`, the IC50 in experiment [5] was 27.1 µM (inactive); in the experiment “cells”, 0.21 µM (active).
For the molecule `Cc1ccc(C)c(N/C([S-])=C(/C(=O)c2ccc(Cl)s2)[n+]2ccccc2)c1`, the values for the concentration for half-maximal inhibition (IC50) in [1] and in experiment [2] were 5.82 µM (active) and 9.94 µM (active), respectively.
On to `C/C=C/c1ccc2c(c1)O[C@H](CN(C)C(=O)Cc1cccnc1)[C@H](C)CN([C@H](C)CO)S2(=O)=O`, for which the concentration at half-maximal activity (AC50) in [9] is 10.7 µM (active).
Regarding `CCOc1ccccc1NC(=O)CCCc1nc(O)c2ccccc2n1`, the IC50 in experiment [5] is 71.7 µM (inactive).
Take `CCNc1cc2c(cc1O)CCC1C2CCC2(C)C(O)CCC12` (stereo unspecified): in experiment [5], the IC50 was > 80 µM (inactive).
Consider `COc1ccccc1CN1CCC(CNS(=O)(=O)c2cc(-c3cc(C)no3)ccc2OC)CC1`, for which the cytotoxic concentration (CC50) in the experiment with Vero is > 25 µM (active).
Turning to `O=[N+]([O-])/C=C\c1ccc(N2CCCC2)c(F)c1`, in the experiment on Vero, the half-maximal cytotoxic concentration (CC50) is 18.6 µM (active). The concentration at half-maximal activity (AC50) was 13.4 µM (active) in [14] and 8.22 µM (active) in [15].
Take `CNC(=O)C[C@@H]1CC[C@@H]2[C@@H](COc3ccc(NC(=O)c4cccc(OC)c4)cc3C(=O)N2C)O1`: the concentration at half-maximal activity (AC50) in [9] was 67.7 µM (active).
Turning to `CCOc1cccc(C=NN=C(S)Nc2ccccc2[N+](=O)[O-])c1O`, the IC50 in the experiment with HEK293 [3] was > 20 µM (inactive); on Tumor necrosis factor, 0.414 µM (active); in [4], 8.23 µM (active).
